Source: article PMC9816242, “Human metabolism and excretion kinetics of benzotriazole UV stabilizer UV-327 after single oral administration” (Archives of Toxicology, 2022)

What was measured:
clinical [1] = details: for form present in urine (conjugated/unconjugated): urine processed with and without enzymatic hydrolysis; for relative urinary share of the amount recovered within 72 h: % of the dose recovered in urine within 72 h; for t1/2 (elimination half-life, renal excretion): from mean excretion curves
Method: Enzymatic hydrolysis was performed at 37 °C for 16 h using β-glucuronidase/arylsulfatase from H. pomatia. The analytes and internal standards were extracted by dispersive liquid–liquid microextraction (DLLME) with isopropanol and chloroform. […] The urinary creatinine content was determined photometrically by the Jaffé’s method (Larsen [1972]).
Renal excretion rates (RE, in µg/h) of each analyte at a certain point in time were calculated by the following equation: RE=ci×vi/ti-ti-1
where ci (in µg/l) is the concentration of UV-327 or its metabolites in the urine sample i, vi (in l) is the volume of the respective urine sample, ti (in h) is the elapsed time value of the sampling, and ti−1 (in h) is the elapsed time value of the previous sampling.
Renal excretion kinetics of UV-327 and its metabolites were plotted as temporal progressions of the renal excretion rates RE at the midpoint of the respective sampling periods (ti,m in h), which were calculated as follows: ti,m=ti-1+ti-ti-1/2
Excretion curves were prepared for each study participant and each analyte by plotting the current excretion rates against the average time of the sampling period. Mean excretion curves were then obtained by averaging the closest sampling time points and the corresponding renal excretion rates for all study participants (mean ± standard deviation (SD)). The slopes (kel, elimination rate constant) of the ln-transformed mean excretion curves were used to calculate the elimination half-lives (t1/2) as follows: t1/2=ln(2)/kel
By summing the molar excreted amounts of UV-327 and its metabolites, the cumulative excreted amount of each analyte (in µmol) was calculated for each study participant: ∑i=0nci×vi/M
Furthermore, urinary excretion factors (FUE) as UV-327 dose equivalents (as percentages) were calculated to express the total excretion of UV-327 and its metabolites in urine after 24 h, 48 h, and 72 h: FUE=CEi/MD×100
CEi is the amount of the respective analyte excreted after 24 h, 48 h, and 72 h (in µmol) and MD is the ingested amount of UV-327 (in µmol).
The shares of conjugation of UV-327 and its metabolites were determined by correlation of the urinary excretion rates obtained with and without the performance of enzymatic hydrolysis. The slope of the linear fit describes the percentage of the unconjugated form of the respective analyte.

[2] = UV-327 and metabolites in plasma of one volunteer after single oral administration of UV-327; details: n = 1; AUC plasma / AUC blood per method
Method: (§1) For the determination of potential background exposure, one blood and one urine sample of each participant were collected prior to the oral administration of UV-327. 14–29 mg of UV-327 were weighed directly onto a small piece of bread with butter, which was then consumed by the volunteers. Samples of urine and blood were then collected up to 72 h post-application. The participants collected all urine voids in separate containers. The sampling times and volumes of each sample were recorded. The urine samples were aliquoted and stored at − 50 °C until analysis. 9 ml of blood were drawn from peripheral veins at 2 h, 4 h, 6 h, 8 h, 10 h, 24 h, 34 h, 48 h, and 72 h after exposure and collected in EDTA-Monovettes®. […] Both blood and plasma samples were stored at − 50 °C until analysis.
(§2) Stock solutions of each analyte and internal standard (200 mg/l) were prepared in acetone. For calibration, an analyte spiking solution was prepared in a mixture of acetonitrile and aqueous 0.9% NaCl solution (v/v, 1:1), which contained 500 µg/l of each metabolite. For the determination of UV-327, two analyte spiking solutions were prepared, containing 2 mg/l or 40 mg/l of UV-327 in a mixture of acetonitrile and 0.9% NaCl solution (v/v, 1:1). The internal standard spiking solution contained 20 mg/l of D20-UV-327 and 1 mg/l each of D6-UV-327-4-mcx, D6-UV-327-4-mOH, D12-UV-327-4 + 6-diOH, and D6-UV-327-4-mOH-6-mcx. For derivatization, a solution containing 5% (v/v) TSIM in toluene was freshly prepared for each analytical run. Calibration standards were prepared by spiking human plasma with various volumes of the analyte spiking solutions. An eight-point calibration curve in the range of 0.5–25 µg/l was applied for the determination of the metabolites, except for UV-327-4-mOH-6-mcx, for which the calibration range was set to 2–100 µg/l due to higher limits of detection and quantitation. For the determination of UV-327, a nine-point calibration curve in the range of 10–2000 µg/l was applied. A reagent blank sample, containing water instead of plasma, was included in each analytical run. […]

[3] = UV-327 and metabolites in whole blood of volunteers after single oral administration of UV-327; details: for share of the total amount of all analytes at the time point of maximum concentration: blood, UV-327 equivalents at cmax; for time after which mean blood level was below LOD / cmax (maximum blood level): whole blood; for time after which mean blood level was below LOD: single oral 0.3 mg/kg UV-327; for cmax (maximum blood level): single oral 0.3 mg/kg body weight UV-327, n = 3, mean ± SD
Method: (§3) The administered dose of UV-327 was calculated with respect to an adequate distance from the no observed adverse effect level (NOAEL) determined in toxicological studies. […] As a result, 0.3 mg of UV-327/kg body weight was administered to each participant.
(§4) For the determination of potential background exposure, one blood and one urine sample of each participant were collected prior to the oral administration of UV-327. 14–29 mg of UV-327 were weighed directly onto a small piece of bread with butter, which was then consumed by the volunteers. Samples of urine and blood were then collected up to 72 h post-application. The participants collected all urine voids in separate containers. The sampling times and volumes of each sample were recorded. The urine samples were aliquoted and stored at − 50 °C until analysis. 9 ml of blood were drawn from peripheral veins at 2 h, 4 h, 6 h, 8 h, 10 h, 24 h, 34 h, 48 h, and 72 h after exposure and collected in EDTA-Monovettes®. Additional blood samples were collected from one subject 14 h, 28 h, and 58 h after exposure. This study participant donated two blood samples at each point in time; one blood sample was centrifuged to obtain plasma samples. Both blood and plasma samples were stored at − 50 °C until analysis.
(§5) Whole blood samples were prepared, processed, and analyzed according to a previously published method (Fischer and Göen [2022]). Proteins and cellular components were precipitated by the addition of acetonitrile. After centrifugation, the supernatants were diluted with water and ammonium acetate buffer. For analyte extraction, chloroform was added. The extracts were evaporated to dryness, followed by the addition of toluene and derivatization with both BSA/TCMS and TSIM. LODs ranged from 0.02 to 0.36 µg/l. […] Mean relative recovery rates ranged from 91% to 118%.
(§6) The blood samples of one study participant were additionally processed with the addition of β-glucuronidase/arylsulfatase from H. pomatia and incubation at 37 °C for 16 h to examine potential conjugation of UV-327 and its metabolites to glucuronide/sulfate.
(§7) A TRACE 1310 gas-chromatographic system equipped with a TriPlus RSH autosampler and a split/splitless injector was used for the analysis of the urine, blood, and plasma samples. The gas-chromatographic system was coupled to a TSQ 9000 triple–quadrupole mass spectrometer equipped with an advanced electron ionization (AEI) source (Thermo Fisher Scientific Inc., Waltham, USA). Chromatographic separation was performed on a (5% phenyl)-methylpolysiloxane low-bleed capillary column (HP-5msUI, 60 m × 250 µm × 0.25 µm, Agilent Technologies, Inc., Santa Clara, USA) at a constant flow rate of 1 ml/min using helium as a carrier gas. Total analysis time was 44 min. The GC–MS/MS equipment and parameter-specific settings were used as described in earlier publications for the analysis of urine (Fischer and Göen [2021]) and blood samples (Fischer and Göen [2022]). Plasma samples were analyzed using the same parameter-specific settings as for the analysis of blood samples.
(§8) Mean concentration–time curves in blood were obtained by plotting the mean blood levels against time. The elimination half-lives (t1/2) were calculated as described above. […] For this purpose, UV-327 equivalents (as percentages) were calculated as follows: ∑i=0ncmax/M×MUV-327×100

[4] = in vivo, po; cited from earlier work
human estrogen receptor = test system: human estrogen receptor; set-up: method as in Fent et al. [2014]; Sakuragi et al. [2021]; details: ref Fent et al. [2014]; Sakuragi et al. [2021]; cited from earlier work
human androgen receptor = test system: human androgen receptor; set-up: method as in Fent et al. [2014]; Sakuragi et al. [2021]; details: ref Fent et al. [2014]; Sakuragi et al. [2021]; cited from earlier work
[5] = test system: thyroid hormone receptors; set-up: method as in Nagayoshi et al. [2015]; details: ref Nagayoshi et al. [2015]; cited from earlier work
human serum albumin = test system: human serum albumin; set-up: method as in Zhuang et al. [2016]; details: ref Zhuang et al. [2016]; cited from earlier work
[6] = set-up: method as in Cantwell et al. [2015]; details: ref Cantwell et al. [2015]; cited from earlier work
clinical [7] = details: both, human, whole blood, po, 0.3 mg/kg
Method: as §3, §4, §5, §6, §7, §8

clinical [8] = details: human, plasma, po, 0.3 mg/kg
Method: as §1, §2

rats [9] = details: ref Ema et al. [2006]; cited from earlier work
rats [10] = details: ref Ema et al. [2008]; cited from earlier work
rats [11] = details: especially male, ref Ema et al. [2008]; cited from earlier work
beagle dogs = details: 90-day feeding study, ref CIBA AG [1970]; cited from earlier work
[12] = in vitro; ref Fischer et al. [2020]; cited from earlier work
[13] = set-up: method as in Sommer et al. [2020]; details: oral administration, ref Sommer et al. [2020]; cited from earlier work
[14] = urine of one participant, with vs without enzymatic hydrolysis
[15] = urine up to 72 h, n = 3, mean ± SD
[16] = both, human, in vivo, po, 0.3 mg/kg

## 2-(5-chloro-benzotriazol-2-yl)-6-(1-hydroxy-2-methylpropyl)-4-(tert-butyl)phenol [UV-327-6-mOH]
Clinical [1]; human, in vivo
  FUE after 24 h (urinary excretion factor): 0.0034 ± 0.0006%
  FUE after 48 h (urinary excretion factor): 0.0046 ± 0.0010%
  FUE after 72 h (urinary excretion factor): 0.0049 ± 0.0013%
Clinical [1]; human, in vivo, po, 0.3 mg/kg
  REmax (maximum renal excretion rate): 0.068 ± 0.06 µg/h
  tmax (time point of maximum renal excretion rate): 8.7 ± 0.21 h
Clinical [1]; [14]
  Share of conjugation: 100%
Clinical [1]
  form present in urine (conjugated/unconjugated): only present in their conjugated forms
Clinical [1]; [15]
  Cumulative excreted amount: 0.0030 ± 0.0011 µmol
Clinical [1]; urine
  relative urinary share of the amount recovered within 72 h: 17.2%
Clinical [1]; urine, n = 3
  t1/2 (elimination half-life, renal excretion): 13.9 h
[2]
  plasma to blood ratio: 1.5 to 1.6
[3]
  share of the total amount of all analytes at the time point of maximum concentration: 0.04%
  time after which mean blood level was below LOD: 48 h
  cmax (maximum blood level): 0.27 ± 0.10 µg/L

## CCCOC(=O)c1ccc(O)cc1 [propyl paraben]
[4]
  time to maximum serum level: 1.4 ± 1.1 h

## 2-(5-chloro-benzotriazol-2-yl)-4,6-di-(1-hydroxy-2-methylpropyl)phenol [UV-327-4 + 6-diOH]
Clinical [1]; human, in vivo
  FUE after 24 h (urinary excretion factor): 0.0104 ± 0.0022%
  FUE after 48 h (urinary excretion factor): 0.0156 ± 0.0027%
  FUE after 72 h (urinary excretion factor): 0.018%
Clinical [1]; human, in vivo, po, 0.3 mg/kg
  REmax (maximum renal excretion rate): 0.214 ± 0.058 µg/h
  tmax (time point of maximum renal excretion rate): 10.6 ± 0.08 h
Clinical [1]; [14]
  Share of conjugation: 100%
Clinical [1]
  form present in urine (conjugated/unconjugated): only present in their conjugated forms
Clinical [1]; [15]
  Cumulative excreted amount: 0.0121 ± 0.0051 µmol
Clinical [1]; urine, % of ingested UV-327 dose, 72 h, n = 3, mean ± SD
  FUE after 72 h (urinary excretion factor): 0.0183 ± 0.0030%
Clinical [1]; urine
  relative urinary share of the amount recovered within 72 h: 64.5%
Clinical [1]; urine, n = 3
  t1/2 (elimination half-life, renal excretion): 33.0 h
[3]; blood samples up to 72 h post-exposure
  detection in blood: not detected in blood

## CC(C)(C)c1cc(-n2nc3ccc(Cl)cc3n2)c(O)c(C(C)(C)C)c1 [UV-327, 2-(5-chloro-benzotriazol-2-yl)-4,6-di-(tert-butyl)phenol]
Clinical [1]; both, human, in vivo
  Cumulative excreted amount: 0.0016 ± 0.0007 µmol
  FUE after 24 h (urinary excretion factor): 0.0015 ± 0.0004%
  FUE after 48 h (urinary excretion factor): 0.0023 ± 0.0007%
  FUE after 72 h (urinary excretion factor): 0.0026 ± 0.0009%
  half-life: 18.2 h
  share of the total 72 h urinary amount (UV-327 and its metabolites) excreted within 24 h: 61%
  share of the total 72 h urinary amount (UV-327 and its metabolites) excreted within 48 h: 88%
Clinical [1]; [16]
  REmax (maximum renal excretion rate): 0.026 ± 0.007 µg/h
  Tmax: 13.5 ± 0.05 h
Clinical [1]; human, in vivo
  Share of conjugation: 16%
  unconjugated form in urine: 84%
Clinical [1]; urine
  relative urinary share of the amount recovered within 72 h: 9.0%
Human estrogen receptor
  activity against human estrogen receptor: no activity
Human androgen receptor
  activity against human androgen receptor: no activity
[5]
  activity against thyroid hormone receptors: no activity
Human serum albumin
  binding to human serum albumin: found to bind to human serum albumin by forming hydrogen bonds
[6]
  Log Kow: 6.75
Clinical [7]
  Cmax: 632 ± 114 ng/mL
  Tmax: 6 h
  concentration at 24 h: 103 ± 24 ng/mL
  concentration at 72 h: 27 ± 5 ng/mL
Clinical [8]
  Tmax: 6 h
Rats [9]
  oral LD50: > 5000 mg/kg body weight
Rats [10]
  reproductive toxicity: did not cause reproductive
Rats [11]
  liver findings after repeated oral administration: increased liver weights, histopathological changes in hepatic tissue, and alterations in liver-specific blood parameters
Beagle dogs
  NOAEL: 30 mg/kg/day
[12]
  extent of metabolism in human liver microsomes: only moderately metabolized
[3]; blood of one participant, β-glucuronidase/arylsulfatase
  conjugation in blood (with vs without enzymatic hydrolysis): not present as conjugates in blood
[3]
  share of the total amount of all analytes at the time point of maximum concentration: 99.9%

## 2-(5-chloro-benzotriazol-2-yl)-4-(1-hydroxy-2-methylpropyl)-6-(tert-butyl)phenol [UV-327-4-mOH]
Clinical [1]; human, in vivo
  FUE after 24 h (urinary excretion factor): 0.0016 ± 0.0004%
  FUE after 48 h (urinary excretion factor): 0.0022 ± 0.0007%
  FUE after 72 h (urinary excretion factor): 0.0026 ± 0.0011%
Clinical [1]; human, in vivo, po, 0.3 mg/kg
  REmax (maximum renal excretion rate): 0.032 ± 0.012 µg/h
  tmax (time point of maximum renal excretion rate): 13.5 ± 0.05 h
Clinical [1]; [14]
  Share of conjugation: 100%
Clinical [1]
  form present in urine (conjugated/unconjugated): only present in their conjugated forms
Clinical [1]; [15]
  Cumulative excreted amount: 0.0016 ± 0.0009 µmol
Clinical [1]; urine
  relative urinary share of the amount recovered within 72 h: 9.2%
Clinical [1]; urine, n = 3
  t1/2 (elimination half-life, renal excretion): 26.7 h
[2]
  plasma to blood ratio: 1.5 to 1.6
[3]
  share of the total amount of all analytes at the time point of maximum concentration: 0.04%
  time after which mean blood level was below LOD: 72 h
  cmax (maximum blood level): 0.26 ± 0.10 µg/L

## CN(C)CCc1ccc(O)cc1 [N,N-dimethyltyramine]
[13]
  time to plasma peak level: 30 to 90 min
